Assay type in all cases: cell-based
The test system of experiment [1] is T47D cells expressing mutant PI3Ka (H1047R). Description: In vitro cell proliferation, T47D cells (CellTiter-Glo). To be noted: inhibition of proliferation, read-out: Avg T-47D EC50. In a few lines: (§1)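 Proliferation was read by CellTiter-Glo luminescence after 72 h of exposure to 10-point compound dilutions at 37 °C and 5% CO2. T47D (RPMI, 10% FBS, insulin 0.2 units/mL) and SKBR3 (McCoys 5a, 10% FBS) cells were seeded at 1,500 cells/well. EC50 was fitted from inhibition relative to DMSO and 10 uM Alpelisib.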
In general terms: Cellular ATP, detected with luciferase, serves as a proxy for viable cell number.

Experiment [2] deals with SKBR3 cells express WT PI3Ka. Description: In vitro cell proliferation, SKBR3 cells (CellTiter-Glo). As to conditions: inhibition of proliferation. In outline: as §1
In experiment [3] the test system is phosphorylation of AKT (pAKT) in T47D cells expressing mutant PI3Ka (H1047R). Description: In vitro cell pAKT (Ser473) HTRF, T47D cells. In outline: (§2)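 T47D cells (RPMI, 10% FBS, 0.2 units/mL insulin) or SKBR3 cells (McCoy's 5a, 10% FBS) were seeded onto 10-point compound dilutions and incubated 6 h at 37 °C. After lysis, pAKT was detected overnight by HTRF (Eu cryptate/d2). IC50 was fitted from % inhibition relative to 0.1% DMSO and 10 uM alpelisib controls.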
(In general: Time-resolved FRET reads energy transfer from a long-lived donor to a nearby acceptor.)

Experiment [4] relates to phosphorylation of AKT (pAKT) in SKBR3 cells express WT PI3Ka. Description: In vitro cell pAKT (Ser473) HTRF, SKBR3 cells. In outline:
as §2

The mark [5] stands for this setting: cellular pAKT, T47D cells, mutant PI3Ka (H1047R), 6 hours, read-out: Avg T-47D IC50.
The mark [6] stands for this setting: Homo sapiens, T47D, 6 h, cellular pAKT, T47D cells, mutant PI3Ka (H1047R), 6 hours, read-out: Avg T-47D IC50.
Where [7] appears, read: Homo sapiens, SK-BR-3, 6 h, cellular pAKT.
The mark [8] stands for this setting: Homo sapiens, T47D, 6 h, read-out: Avg T-47D IC50, cellular pAKT, T47D cells, mutant PI3Ka (H1047R), 6 hours.
Setting [9] is: Homo sapiens, SK-BR-3, cellular pAKT, 6 hours.

Read-outs that look alike come from different tables or passages of the source.

The EC50 is the concentration giving half of the maximal effect. As usually defined, the IC50 is the midpoint of a concentration-inhibition curve. As to `CC(Nc1ccccc1C(=O)O)c1cc(F)cc2c(=O)n(C)c(N3CCN(CC(F)(F)F)CC3)c(F)c12` (single isomer, unassigned) [Example 572], the EC50 is 0.001 to 0.5 µM in experiment [1] (72 hours) and more than 15 µM in experiment [2] (Homo sapiens, SK-BR-3, 72 h). For the same compound, the IC50 in experiment [3] (setting [5]) was in the range of 0.001 to 0.5 µM; in experiment [4] (cellular pAKT, 6 hours), 2 to 15 µM.

As to `CC(Nc1ccccc1C(=O)O)c1cc(F)cc2c(=O)n(C)c(N3CCN(CC(F)(F)F)CC3)c(F)c12` (single isomer, unassigned) [Example 573], the EC50 in experiment [1] (72 hours) was 2 to 15 µM; in experiment [2] (72 hours), more than 15 µM. Moreover, the IC50 was 2 to 15 µM in experiment [3] (setting [5]) and more than 15 µM in experiment [4] (cellular pAKT, 6 hours).

As to `C[C@@H](Nc1ccccc1C(=O)O)c1cc(F)cc2c(=O)n(C)c(C3C[C@@H]3CF)c(F)c12` (single isomer, unassigned) [Example 577], the EC50 in experiment [1] (Homo sapiens, T47D, 72 h) was 0.001 to 0.5 µM; in experiment [2] (Homo sapiens, SK-BR-3, 72 h), more than 15 µM. In addition, the concentration for half-maximal inhibition (IC50) in experiment [3] (setting [6]) was 0.001 to 0.5 µM; in experiment [4] (setting [7]), more than 15 µM.

For the compound `Cc1ccc(N[C@H](C)c2cc(F)cc3c(=O)n(C)c(C4CC4C4CC4)cc23)c(C(=O)O)n1` (stereo in doubt) [Example 45, 3-(((R)-1-(3-(trans-[1,1′-bi(cyclopropan)]-2-yl)-7-fluoro-2-methyl-1-oxo-1,2-dihydroisoquinolin-5-yl)ethyl)amino)-6-methylpicolinic acid], the EC50 is 2 to 15 µM in experiment [1] (72 hours) and more than 15 µM in experiment [2] (72 hours). The IC50 in experiment [3] (setting [5]) is 0.5 to 2 µM; in experiment [4] (cellular pAKT, 6 hours), more than 15 µM.

As for `Cc1cc(C(C)Nc2ccccc2C(=O)O)c2cc(-c3cc4cc(F)ccc4[nH]3)n(C)c(=O)c2c1` (centres unmarked) [Example 7, 2-((1-(3-(5-fluoro-1H-indol-2-yl)-2,7-dimethyl-1-oxo-1,2-dihydroisoquinolin-5-yl)ethyl)amino)benzoic acid], the EC50 in experiment [1] (Homo sapiens, T47D, 72 h) is 2 to 15 µM; in experiment [2] (Homo sapiens, SK-BR-3, 72 h) it was more than 15 µM. In addition, the IC50 in experiment [3] (setting [6]) is 0.5 to 2 µM; in experiment [4] (setting [7]), more than 15 µM.

In the case of `Cc1cc(C(C)Nc2ccccc2C(=O)O)c2cc(N3C[C@@H]4[C@@H](C#N)[C@@H]4C3)n(C)c(=O)c2c1` (stereo partly drawn) [Example 14, 2-((1-(3-((1R,5S,6r)-6-cyano-3-azabicyclo[3.1.0]hexan-3-yl)-2,7-dimethyl-1-oxo-1,2-dihydroisoquinolin-5-yl)ethyl)amino)benzoic acid], the EC50 was 0.001 to 0.5 µM in experiment [1] (72 hours) and more than 15 µM in experiment [2] (Homo sapiens, SK-BR-3, 72 h). The values for the IC50 in experiment [3] (setting [5]) and in experiment [4] (setting [7]) were 0.001 to 0.5 µM and more than 15 µM, respectively.

For the compound `Cc1cc(C(C)Nc2ccccc2C(=O)O)c2cc(N3C[C@@H]4[C@@H](C#N)[C@@H]4C3)n(C)c(=O)c2c1` (stereo partly drawn) [Example 15, 2-((1-(3-((1R,5S,6r)-6-cyano-3-azabicyclo[3.1.0]hexan-3-yl)-2,7-dimethyl-1-oxo-1,2-dihydroisoquinolin-5-yl)ethyl)amino)benzoic acid], the EC50 in experiment [1] (72 hours) was 0.5 to 2 µM; in experiment [2] (72 hours), more than 15 µM. The IC50 in experiment [3] (setting [5]) is 2 to 15 µM; in experiment [4] (cellular pAKT, 6 hours) it was more than 15 µM.

For `Cc1cc([C@@H](C)Nc2ccc(Cl)nc2C(=O)O)c2cc(N3CCN(c4ccc(F)cc4)CC3)n(C)c(=O)c2c1` [Example 24, (R)-6-chloro-3-((1-(3-(4-(4-fluorophenyl)piperazin-1-yl)-2,7-dimethyl-1-oxo-1,2-dihydroisoquinolin-5-yl)ethyl)amino)picolinic acid], the EC50 in experiment [1] (Homo sapiens, T47D, 72 h) was in the range of 0.001 to 0.5 µM; in experiment [2] (Homo sapiens, SK-BR-3, 72 h), 2 to 15 µM. Besides, the figures for the IC50 in experiment [3] (setting [8]) and in experiment [4] (setting [9]) were 0.001 to 0.5 µM and 2 to 15 µM, respectively.

For the compound `Cc1cc([C@@H](C)Nc2ccc(Cl)nc2C(=O)O)c2cc(N3CCN(Cc4ccc(F)cc4)CC3)n(C)c(=O)c2c1` [Example 25, (R)-6-chloro-3-((1-(3-(4-(4-fluorobenzyl)piperazin-1-yl)-2,7-dimethyl-1-oxo-1,2-dihydroisoquinolin-5-yl)ethyl)amino)picolinic acid], the EC50 was 0.001 to 0.5 µM in experiment [1] (Homo sapiens, T47D, 72 h) and 2 to 15 µM in experiment [2] (Homo sapiens, SK-BR-3, 72 h). The IC50 in experiment [3] (setting [6]) fell in the range of 0.001 to 0.5 µM; in experiment [4] (setting [7]), 2 to 15 µM.

With `Cc1cc([C@@H](C)Nc2ccc(Cl)nc2C(=O)O)c2cc(-c3ccc(-c4ccc(F)cc4)nc3)n(C)c(=O)c2c1` [Example 26, (R)-6-chloro-3-((1-(3-(6-(4-fluorophenyl)pyridin-3-yl)-2,7-dimethyl-1-oxo-1,2-dihydroisoquinolin-5-yl)ethyl)amino)picolinic acid], the concentration giving a half-maximal response (EC50) in experiment [1] (Homo sapiens, T47D, 72 h) was in the range of 0.001 to 0.5 µM; in experiment [2] (Homo sapiens, SK-BR-3, 72 h) it was 2 to 15 µM. Also, the half-maximal inhibitory concentration (IC50) fell in the range of 0.001 to 0.5 µM in experiment [3] (setting [6]) and 2 to 15 µM in experiment [4] (setting [7]).

As to `Cc1cc([C@@H](C)Nc2ccc(Cl)nc2C(=O)O)c2cc(C3=CCN(CC(F)(F)F)CC3)n(C)c(=O)c2c1` [Example 27], the EC50 in experiment [1] (Homo sapiens, T47D, 72 h) was in the range of 0.001 to 0.5 µM; in experiment [2] (Homo sapiens, SK-BR-3, 72 h), 2 to 15 µM. Moreover, the figures for the half-maximal inhibitory concentration (IC50) in experiment [3] (setting [6]) and in experiment [4] (setting [7]) were 0.001 to 0.5 µM and 2 to 15 µM, respectively.

As for `CCn1c(N2CCC(C)(C)CC2)cc2c(C(C)Nc3ccccc3C(=O)O)cc(C)cc2c1=O` (centres unmarked) [Example 29, 2-((1-(3-(4,4-dimethylpiperidin-1-yl)-2-ethyl-7-methyl-1-oxo-1,2-dihydroisoquinolin-5-yl)ethyl)amino)benzoic acid], the EC50 in experiment [1] (Homo sapiens, T47D, 72 h) is 2 to 15 µM; in experiment [2] (Homo sapiens, SK-BR-3, 72 h) it was more than 15 µM. Also, the IC50 in experiment [3] (setting [8]) and in experiment [4] (setting [9]) was more than 15 µM throughout.

In the case of `Cc1cc([C@@H](C)Nc2ccccc2C(=O)O)c2cc(SCc3ccccc3)n(C)c(=O)c2c1` [Example 34, (R)-2-((1-(3-(benzylthio)-2,7-dimethyl-1-oxo-1,2-dihydroisoquinolin-5-yl)ethyl)amino)benzoic acid], the EC50 in experiment [1] (Homo sapiens, T47D, 72 h) was 0.001 to 0.5 µM; in experiment [2] (Homo sapiens, SK-BR-3, 72 h), more than 15 µM. Moreover, the IC50 in experiment [3] (setting [8]) was 0.001 to 0.5 µM; in experiment [4] (setting [9]), more than 15 µM.

For `C[C@@H](Nc1cccc(F)c1C(=O)O)c1cc(F)cc2c(=O)n(C)c(C34CC(C(F)(F)F)(C3)C4)cc12` [Example 39, (R)-2-fluoro-6-((1-(7-fluoro-2-methyl-1-oxo-3-(3-(trifluoromethyl)bicyclo[1.1.1]pentan-1-yl)-1,2-dihydroisoquinolin-5-yl)ethyl)amino)benzoic acid], the 50% effective concentration (EC50) in experiment [1] (Homo sapiens, T47D, 72 h) is 0.001 to 0.5 µM; in experiment [2] (Homo sapiens, SK-BR-3, 72 h) it was more than 15 µM. In addition, the IC50 was 0.001 to 0.5 µM in experiment [3] (setting [6]) and more than 15 µM in experiment [4] (setting [7]).

On to `Cc1cc([C@@H](C)Nc2ccccc2C(=O)O)c2cc(OCC(C)C)n(C)c(=O)c2c1` [Example 40, (R)-2-((1-(3-isobutoxy-2,7-dimethyl-1-oxo-1,2-dihydroisoquinolin-5-yl)ethyl)amino)benzoic acid], for which the EC50 in experiment [1] (Homo sapiens, T47D, 72 h) was 0.5 to 2 µM; in experiment [2] (Homo sapiens, SK-BR-3, 72 h) it was more than 15 µM. Also, the IC50 was 0.001 to 0.5 µM in experiment [3] (setting [6]) and more than 15 µM in experiment [4] (setting [7]).

Turning to `Cc1cc([C@@H](C)Nc2ccc(F)cc2C(=O)O)c2c(F)c(N3CCN(CC(F)(F)F)CC3)n(C)c(=O)c2c1` [Example 41, (R)-5-fluoro-2-((1-(4-fluoro-2,7-dimethyl-1-oxo-3-(4-(2,2,2-trifluoroethyl)piperazin-1-yl)-1,2-dihydroisoquinolin-5-yl)ethyl)amino)benzoic acid], the EC50 in experiment [1] (Homo sapiens, T47D, 72 h) lay in the range of 0.001 to 0.5 µM; in experiment [2] (Homo sapiens, SK-BR-3, 72 h) it was 2 to 15 µM. The IC50 in experiment [3] (setting [6]) is 0.001 to 0.5 µM; in experiment [4] (setting [7]) it was more than 15 µM.

Regarding `C[C@@H](Nc1ccccc1C(=O)O)c1cc(F)cc2c(=O)n(C)c(-c3cnc(-c4cc(=O)n(C)cc4F)c(F)c3)cc12` [Example 42, (R)-2-((1-(3-(3,5′-difluoro-1′-methyl-2′-oxo-1′,2′-dihydro-[2,4′-bipyridin]-5-yl)-7-fluoro-2-methyl-1-oxo-1,2-dihydroisoquinolin-5-yl)ethyl)amino)benzoic acid], the EC50 in experiment [1] (Homo sapiens, T47D, 72 h) is 0.5 to 2 µM; in experiment [2] (Homo sapiens, SK-BR-3, 72 h), more than 15 µM. In addition, the IC50 was 0.5 to 2 µM in experiment [3] (setting [6]) and more than 15 µM in experiment [4] (setting [7]).
